{"source": "paper PMC3985129", "about": "(Journal of laboratory automation, 2013)", "key": {"[1]": {"experiment": "Cytotoxicity assay", "conditions": "human, MMTV-βLa HeLa cells, EC50 (95% confidence interval), Cytotoxicity assay (ATP content)"}, "[2]": {"biological_target": "green coffee bean α-galactosidase A (GLA) (Coffea arabica, UniProt Q42656)", "sequence (Q42656 16-378)": "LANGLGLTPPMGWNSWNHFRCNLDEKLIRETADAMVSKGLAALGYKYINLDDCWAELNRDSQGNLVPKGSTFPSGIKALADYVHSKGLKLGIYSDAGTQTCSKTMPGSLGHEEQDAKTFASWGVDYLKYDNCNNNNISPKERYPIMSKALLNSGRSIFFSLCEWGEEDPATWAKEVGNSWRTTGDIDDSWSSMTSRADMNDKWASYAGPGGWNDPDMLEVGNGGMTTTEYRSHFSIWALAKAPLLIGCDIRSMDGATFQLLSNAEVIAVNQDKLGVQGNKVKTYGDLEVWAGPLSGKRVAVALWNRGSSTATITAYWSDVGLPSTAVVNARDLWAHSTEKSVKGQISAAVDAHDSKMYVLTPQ", "experiment": "α-galactosidase", "type": "biochemical"}, "[3]": {"conditions": "HP D300 - with DMSO backfill, 384-well"}, "[4]": {"conditions": "HP D300 - without DMSO backfill, 384-well"}}, "note": "Several values for one entry are separate records, joined by “and”; a condition that tells them apart may be missing. Equal entries are not always repeated.", "data": [{"smiles": "COc1cccc2c1C(=O)c1c(O)c3c(c(O)c1C2=O)C[C@@](O)(C(C)=O)C[C@@H]3O[C@H]1C[C@H](N)[C@H](O)[C@H](C)O1", "note": "[Daunorubicin]", "values": [{"measurement": "EC50 at 72 hr", "setting": "[1]; [3]", "result": 0.189, "unit": "µM"}, {"measurement": "EC50 at 72 hr", "setting": "[1]; [4]", "result": 0.252, "unit": "µM"}, {"measurement": "EC50 at 72 hr", "setting": "[1]; Pin tool – 1536-well", "result": 0.38, "unit": "µM"}]}, {"smiles": "Cc1c(OCC(F)(F)F)ccnc1C[S+]([O-])c1nc2ccccc2[nH]1", "note": "(centres unmarked) [Lansoprazole, lansoprazole]", "values": [{"measurement": "EC50", "setting": "[2]; EC50 (95% confidence interval), α-galactosidase enzyme assay", "result": "12 µM and 11.5 µM and 8.95 µM"}]}, {"smiles": "CC(=O)[O][Hg][c]1ccccc1", "note": "[PMA, phenylmercuric acetate]", "values": [{"measurement": "fold more potent in our assay than previously reported", "setting": "[2]; versus previously published value, ref [4]", "result": "> 50", "unit": "fold"}]}, {"smiles": "CC/C(=C(\\c1ccccc1)c1ccc(OCCN(C)C)cc1)c1ccccc1", "note": "[Tamoxifen, tamoxifen]", "values": [{"measurement": "EC50 at 72 hr", "setting": "[1]; [3]", "result": 8.77, "unit": "µM"}, {"measurement": "EC50 at 72 hr", "setting": "[1]; [4]", "result": 9, "unit": "µM"}, {"measurement": "EC50 at 72 hr", "setting": "[1]; Pin tool – 1536-well", "result": 32.1, "unit": "µM"}]}]}
